Experimental data reported in patent US20180214395A1 (priority 2017, published 2018).

Test: SAD study: cardiac safety (ECG, telemetry, QTcF prolongation)

SMILES: CCC(=O)C(C[C@H](C)N(C)C)(c1ccccc1)c1ccccc1 [d-methadone]
- QTcF Reading 1 (100 mg, subject 9056, 0.5 h): 415 ms
- QTcF Reading 2 (100 mg, subject 9056, 0.5 h): 424 ms
- QTcF Reading 3 (100 mg, subject 9056, 0.5 h): 436 ms
- QTcF Average (100 mg, subject 9056, 2 h): 439 ms
- QTcF Reading 1 (100 mg, subject 9056, 2 h): 445 ms
- QTcF Reading 2 (100 mg, subject 9056, 2 h): 426 ms
- QTcF Reading 3 (100 mg, subject 9056, 2 h): 446 ms
- QTcF Average (100 mg, subject 9056, 3 h): 442 ms
- QTcF Reading 1 (100 mg, subject 9056, 3 h): 453 ms
- QTcF Reading 2 (100 mg, subject 9056, 3 h): 443 ms
- QTcF Reading 3 (100 mg, subject 9056, 3 h): 429 ms
- QTcF Average (100 mg, subject 9056, 5 h): 429 ms
- QTcF Reading 1 (100 mg, subject 9056, 5 h): 419 ms
- QTcF Reading 2 (100 mg, subject 9056, 5 h): 448 ms
- QTcF Reading 3 (100 mg, subject 9056, 5 h): 419 ms
- QTcF Average (100 mg, subject 9056, 8 h): 446 ms
- QTcF Reading 1 (100 mg, subject 9056, 8 h): 436 ms
- QTcF Reading 2 (100 mg, subject 9056, 8 h): 457 ms
- QTcF Reading 3 (100 mg, subject 9056, 8 h): 444 ms
- QTcF Average (100 mg, subject 9056, 24 h): 432 ms
- QTcF Reading 1 (100 mg, subject 9056, 24 h): 432 ms
- QTcF Reading 2 (100 mg, subject 9056, 24 h): 431 ms
- QTcF Reading 3 (100 mg, subject 9056, 24 h): 434 ms
- QTcF Average (100 mg, subject 9056, 48 h): 422 ms
- QTcF Reading 1 (100 mg, subject 9056, 48 h): 418 ms
- QTcF Reading 2 (100 mg, subject 9056, 48 h): 433 ms
- QTcF Reading 3 (100 mg, subject 9056, 48 h): 416 ms
- Overall ECG result Abnormal, NCS (150 mg (N = 6), 0.5 h): 1 (16.7) n (%)
- Overall ECG result Normal (150 mg (N = 6), 0.5 h): 5 (83.3) n (%)
- Overall ECG result Abnormal, NCS (150 mg (N = 6), 1 h): 2 (33.3) n (%)
- Overall ECG result Normal (150 mg (N = 6), 1 h): 4 (66.7) n (%)
- Overall ECG result Abnormal, NCS (150 mg (N = 6), 2 h): 2 (33.3) n (%)
- Overall ECG result Normal (150 mg (N = 6), 2 h): 4 (66.7) n (%)
- Overall ECG result Abnormal, NCS (150 mg (N = 6), 3 h): 4 (66.7) n (%)
- Overall ECG result Normal (150 mg (N = 6), 3 h): 2 (33.3) n (%)
- Overall ECG result Abnormal, NCS (150 mg (N = 6), 5 h): 2 (33.3) n (%)
- Overall ECG result Normal (150 mg (N = 6), 5 h): 4 (66.7) n (%)
- Overall ECG result Abnormal, NCS (150 mg (N = 6), 8 h): 2 (33.3) n (%)
- Overall ECG result Normal (150 mg (N = 6), 8 h): 4 (66.7) n (%)
- Overall ECG result Abnormal, NCS (150 mg (N = 6), 12 h): 2 (33.3) n (%)
- Overall ECG result Normal (150 mg (N = 6), 12 h): 4 (66.7) n (%)
- Overall ECG result Abnormal, NCS (150 mg (N = 6), 24 h): 1 (16.7) n (%)
- Overall ECG result Normal (150 mg (N = 6), 24 h): 5 (83.3) n (%)
- Overall ECG result Abnormal, NCS (150 mg (N = 6), 48 h): 1 (16.7) n (%)
- Overall ECG result Normal (150 mg (N = 6), 48 h): 5 (83.3) n (%)
- Overall ECG result Abnormal, NCS (150 mg (N = 6), 72 h): 0 n (%)
- Overall ECG result Normal (150 mg (N = 6), 72 h): 6 (100) n (%)
- Overall ECG result Abnormal, NCS (150 mg (N = 6), Visit 3): 0 n (%)
- Overall ECG result Normal (150 mg (N = 6), Visit 3): 6 (100) n (%)
- QTcF Average (150 mg, subject 9088, 3 h): 422 ms
- QTcF Reading 1 (150 mg, subject 9088, 3 h): 410 ms
- QTcF Reading 2 (150 mg, subject 9088, 3 h): 434 ms
- QTcF Reading 3 (150 mg, subject 9088, 3 h): 423 ms
- QTcF Average (150 mg, subject 9088, 12 h): 430 ms
- QTcF Reading 1 (150 mg, subject 9088, 12 h): 434 ms
- QTcF Reading 2 (150 mg, subject 9088, 12 h): 427 ms
- QTcF Reading 3 (150 mg, subject 9088, 12 h): 429 ms
- QTcF Average (150 mg, subject 9099, 3 h): 429 ms
- QTcF Reading 1 (150 mg, subject 9099, 3 h): 420 ms
- QTcF Reading 2 (150 mg, subject 9099, 3 h): 431 ms
- QTcF Reading 3 (150 mg, subject 9099, 3 h): 435 ms
- QTcF Average (150 mg, subject 9099, 5 h): 436 ms
- QTcF Reading 1 (150 mg, subject 9099, 5 h): 437 ms
- QTcF Reading 2 (150 mg, subject 9099, 5 h): 440 ms
- QTcF Reading 3 (150 mg, subject 9099, 5 h): 431 ms
- Overall ECG result Abnormal, NCS (200 mg (N = 1), 0.5 h): 1 (100) n (%)
- Overall ECG result Normal (200 mg (N = 1), 0.5 h): 0 n (%)
- Overall ECG result Abnormal, NCS (200 mg (N = 1), 1 h): 1 (100) n (%)
- Overall ECG result Normal (200 mg (N = 1), 1 h): 0 n (%)
- Overall ECG result Abnormal, NCS (200 mg (N = 1), 2 h): 1 (100) n (%)
- Overall ECG result Normal (200 mg (N = 1), 2 h): 0 n (%)
- Overall ECG result Abnormal, NCS (200 mg (N = 1), 3 h): 1 (100) n (%)
- Overall ECG result Normal (200 mg (N = 1), 3 h): 0 n (%)
- Overall ECG result Abnormal, NCS (200 mg (N = 1), 5 h): 1 (100) n (%)
- Overall ECG result Normal (200 mg (N = 1), 5 h): 0 n (%)
- Overall ECG result Abnormal, NCS (200 mg (N = 1), 8 h): 0 n (%)
- Overall ECG result Normal (200 mg (N = 1), 8 h): 1 (100) n (%)
- Overall ECG result Abnormal, NCS (200 mg (N = 1), 12 h): 0 n (%)
- Overall ECG result Normal (200 mg (N = 1), 12 h): 1 (100) n (%)
- Overall ECG result Abnormal, NCS (200 mg (N = 1), 24 h): 1 (100) n (%)
- Overall ECG result Normal (200 mg (N = 1), 24 h): 0 n (%)
- Overall ECG result Abnormal, NCS (200 mg (N = 1), 48 h): 0 n (%)
- Overall ECG result Normal (200 mg (N = 1), 48 h): 1 (100) n (%)
- Overall ECG result Abnormal, NCS (200 mg (N = 1), 72 h): 0 n (%)
- Overall ECG result Normal (200 mg (N = 1), 72 h): 1 (100) n (%)
- Overall ECG result Abnormal, NCS (200 mg (N = 1), Visit 3): 0 n (%)
- Overall ECG result Normal (200 mg (N = 1), Visit 3): 1 (100) n (%)
- QTcF Average (200 mg, subject 9078, 3 h): 426 ms
- QTcF Reading 1 (200 mg, subject 9078, 3 h): 441 ms
- QTcF Reading 2 (200 mg, subject 9078, 3 h): 422 ms
- QTcF Reading 3 (200 mg, subject 9078, 3 h): 416 ms
- ECG abnormal result: QTcF prolongation (SAD 5 mg, 1 h): 1 (16.7) n (%)
- ECG abnormal result: QTcF prolongation (SAD 5 mg, 2 h): 2 (33.3) n (%)
- ECG abnormal result: QTcF prolongation (SAD 5 mg, 3 h): 1 (16.7) n (%)
- ECG abnormal result: QTcF prolongation (SAD 5 mg, 5 h): 2 (33.3) n (%)
- ECG abnormal result: QTcF prolongation (SAD 5 mg, total): 3 (50.0) n (%)
- ECG abnormal result: QTcF prolongation (SAD 20 mg, total): 0 n (%)
- ECG abnormal result: QTcF prolongation (SAD 60 mg, total): 0 n (%)
- ECG abnormal result: QTcF prolongation (SAD 100 mg, 0.5 h): 1 (16.7) n (%)
- ECG abnormal result: QTcF prolongation (SAD 100 mg, 2 h): 1 (16.7) n (%)
- ECG abnormal result: QTcF prolongation (SAD 100 mg, 3 h): 1 (16.7) n (%)
- ECG abnormal result: QTcF prolongation (SAD 100 mg, 5 h): 1 (16.7) n (%)
- ECG abnormal result: QTcF prolongation (SAD 100 mg, 8 h): 1 (16.7) n (%)
- ECG abnormal result: QTcF prolongation (SAD 100 mg, 24 h): 1 (16.7) n (%)
- ECG abnormal result: QTcF prolongation (SAD 100 mg, 48 h): 1 (16.7) n (%)
- ECG abnormal result: QTcF prolongation (SAD 100 mg, total): 1 (16.7) n (%)
- ECG abnormal result: QTcF prolongation (SAD 150 mg, 3 h): 2 (33.3) n (%)
- ECG abnormal result: QTcF prolongation (SAD 150 mg, 5 h): 1 (16.7) n (%)
- ECG abnormal result: QTcF prolongation (SAD 150 mg, 12 h): 1 (16.7) n (%)
- ECG abnormal result: QTcF prolongation (SAD 150 mg, total): 2 (33.3) n (%)
- ECG abnormal result: QTcF prolongation (SAD 200 mg (N=1), 3 h): 1 (100) n (%)
- ECG abnormal result: QTcF prolongation (SAD 200 mg (N=1), total): 1 (100) n (%)
- Dose relation of QTcF prolongation (SAD study): no dose-related effects were observed
- Maximum QTcF interval observed (SAD study, Subject 9056): 457 ms
